ChEMBL document CHEMBL1136657, “Novel ether derivatives of mannopeptimycin glycopeptide antibiotic” (2003)

Legend:
Candida albicans [1] = experiment: Minimum inhibitory concentration against Candida albicans was determined; type: functional
Escherichia coli [2] = experiment: Minimum inhibitory concentration against Escherichia coli (GC 2203) was determined; type: functional
Enterococcus faecalis [3] = experiment: Minimum inhibitory concentration against Enterococcus faecalis (GC 2242) was determined; type: functional
Enterococcus faecalis [4] = experiment: Minimum inhibitory concentration against Enterococcus faecalis (GC 2691) was determined; type: functional
Enterococcus avium = experiment: Minimum inhibitory concentration against Enterococcus avium (GC 4558) was determined; type: functional
Enterococcus faecalis [5] = experiment: Minimum inhibitory concentration against Enterococcus faecalis (GC 4552) was determined; type: functional
Enterococcus faecalis [6] = experiment: Minimum inhibitory concentration against Enterococcus faecalis (GC 4553) was determined; type: functional
Enterococcus faecalis [7] = experiment: Minimum inhibitory concentration against Enterococcus faecalis (GC 4554) was determined; type: functional
Escherichia coli [8] = experiment: Minimum inhibitory concentration against Escherichia coli (GC 4560) was determined; type: functional
Escherichia coli [9] = experiment: Minimum inhibitory concentration against Escherichia coli (GC 4564) was determined; type: functional
Enterococcus faecium = experiment: Minimum inhibitory concentration against Enterococcus faecium (GC 2243) was determined; type: functional
Enterococcus faecalis [10] = experiment: Minimum inhibitory concentration against Enterococcus faecalis (GC 4555) was determined; type: functional
Enterococcus faecalis [11] = experiment: Minimum inhibitory concentration against Enterococcus faecalis (GC 6189) was determined; type: functional
[12] = Minimum inhibitory concentration against Gram(-) sp. was determined; type: functional
Mus musculus = experiment: In vivo activity against Staphylococcus aureus smith was determined after iv administration in mice; type: functional
Morganella morganii = experiment: Minimum inhibitory concentration against Morganella morganii (GC 4381) was determined; type: functional
Pseudomonas aeruginosa = experiment: Minimum inhibitory concentration against Pseudomonas aeruginosa (GC 2214) control was determined; type: functional
Micrococcus luteus = experiment: Minimum inhibitory concentration against Sarcina lutea (GC 4562) was determined; type: functional
[13] = Minimum inhibitory concentration against SCN (GC 4548) was determined; type: functional
[14] = Minimum inhibitory concentration against SCN (GC 4549) was determined; type: functional
[15] = Minimum inhibitory concentration against SCN (GC 4551) was determined; type: functional
[16] = Minimum inhibitory concentration against SCN (GC 6257) was determined; type: functional
[17] = Minimum inhibitory concentration against SCN (GC 4547) was determined; type: functional
Streptococcus pyogenes = experiment: Minimum inhibitory concentration against Streptococcus pyogenes (GC 4563) was determined; type: functional
Streptococcus agalactiae = experiment: Minimum inhibitory concentration against Streptococcus agalactiae (GC4564) was determined; type: functional
Streptococcus pneumoniae [18] = experiment: Minimum inhibitory concentration against Streptococcus pneumoniae (GC 1894) was determined; type: functional
Streptococcus pneumoniae [19] = experiment: Minimum inhibitory concentration against Streptococcus pneumoniae (GC 4565) was determined; type: functional
Streptococcus pneumoniae [20] = experiment: Minimum inhibitory concentration against Streptococcus pneumoniae (GC 6242) was determined; type: functional
Streptococcus = experiment: Minimum inhibitory concentration against Streptococcus was determined; Range is <=0.12-0.5 ug/mL; type: functional
Enterococcus faecalis [21] = experiment: Minimum inhibitory concentration against Enterococcus faecalis (GC 3059) was determined; type: functional
Candida albicans [22] = experiment: Minimum inhibitory concentration against Candida albicans GC 3066 was determined; type: functional
Enterococcus faecalis [23] = experiment: microbe, parasite or virus in culture
[24] = tested on: Staphylococcus haemolyticus; experiment: Minimum inhibitory concentration against Staphylococcus haemolyticus (GC 4546) was determined

CN[C@H](CC(C)C)C(=O)N[C@H]1C(=O)N[C@@H](CC(N)=O)C(=O)N[C@H]2C(=O)N[C@H]3C(=O)N[C@H](C(=O)N[C@H](C(=O)O)c4cc(O)cc(O)c4-c4cc3ccc4O)[C@H](O)c3ccc(c(Cl)c3)Oc3cc2cc(c3O[C@@H]2O[C@H](CO)[C@@H](O)[C@H](O)[C@H]2O[C@H]2C[C@](C)(N)[C@H](O)[C@H](C)O2)Oc2ccc(cc2Cl)[C@H]1O [VANCOMYCIN]
0.5 µg/mL: MIC (Enterococcus faecalis [6]) | MIC (Enterococcus faecalis [7]) | MIC (Escherichia coli [8]) | MIC [14] | MIC [16] | MIC (Streptococcus agalactiae) | MIC (Streptococcus pneumoniae [20]) | MIC (Enterococcus faecalis [23])
≤ 0.12 µg/mL: MIC (Streptococcus)
1 mg/kg: ED50 (Mus musculus)
0.25 µg/mL: MIC (Streptococcus pyogenes) | MIC (Streptococcus pneumoniae [19])
0.5 mg/kg: ED50 (Mus musculus; Mus musculus, iv, read-out: ED50)
1 µg/mL: MIC (Enterococcus faecalis [4]) | MIC (Enterococcus faecalis [5]) | MIC (Micrococcus luteus) | MIC [24]
2 µg/mL: MIC (Enterococcus faecalis [10]) | MIC [13] | MIC [15] | MIC [17]
0.12 µg/mL: MIC (Streptococcus pneumoniae [18])
> 64 µg/mL: MIC (Escherichia coli [2]) | MIC (Enterococcus faecalis [3]) | MIC (Enterococcus avium) | MIC (Escherichia coli [9]) | MIC (Enterococcus faecium) | MIC (Enterococcus faecalis [11]) | MIC (Morganella morganii) | MIC (Pseudomonas aeruginosa) | MIC (Enterococcus faecalis [21]) | MIC (Candida albicans [22])
> 128 µg/mL: MIC (Candida albicans [1]) | MIC [12]
